Among the data in patent US8889875B2, “Pyridyl derivatives as CFTR modulators” (Vertex Pharmaceuticals Incorporated, priority 2008, dated 2014) are Emax values, retold here.

Some results are limits rather than exact numbers.

T1 sequence (P13569 with tags, fused parts or gaps DEL508-508): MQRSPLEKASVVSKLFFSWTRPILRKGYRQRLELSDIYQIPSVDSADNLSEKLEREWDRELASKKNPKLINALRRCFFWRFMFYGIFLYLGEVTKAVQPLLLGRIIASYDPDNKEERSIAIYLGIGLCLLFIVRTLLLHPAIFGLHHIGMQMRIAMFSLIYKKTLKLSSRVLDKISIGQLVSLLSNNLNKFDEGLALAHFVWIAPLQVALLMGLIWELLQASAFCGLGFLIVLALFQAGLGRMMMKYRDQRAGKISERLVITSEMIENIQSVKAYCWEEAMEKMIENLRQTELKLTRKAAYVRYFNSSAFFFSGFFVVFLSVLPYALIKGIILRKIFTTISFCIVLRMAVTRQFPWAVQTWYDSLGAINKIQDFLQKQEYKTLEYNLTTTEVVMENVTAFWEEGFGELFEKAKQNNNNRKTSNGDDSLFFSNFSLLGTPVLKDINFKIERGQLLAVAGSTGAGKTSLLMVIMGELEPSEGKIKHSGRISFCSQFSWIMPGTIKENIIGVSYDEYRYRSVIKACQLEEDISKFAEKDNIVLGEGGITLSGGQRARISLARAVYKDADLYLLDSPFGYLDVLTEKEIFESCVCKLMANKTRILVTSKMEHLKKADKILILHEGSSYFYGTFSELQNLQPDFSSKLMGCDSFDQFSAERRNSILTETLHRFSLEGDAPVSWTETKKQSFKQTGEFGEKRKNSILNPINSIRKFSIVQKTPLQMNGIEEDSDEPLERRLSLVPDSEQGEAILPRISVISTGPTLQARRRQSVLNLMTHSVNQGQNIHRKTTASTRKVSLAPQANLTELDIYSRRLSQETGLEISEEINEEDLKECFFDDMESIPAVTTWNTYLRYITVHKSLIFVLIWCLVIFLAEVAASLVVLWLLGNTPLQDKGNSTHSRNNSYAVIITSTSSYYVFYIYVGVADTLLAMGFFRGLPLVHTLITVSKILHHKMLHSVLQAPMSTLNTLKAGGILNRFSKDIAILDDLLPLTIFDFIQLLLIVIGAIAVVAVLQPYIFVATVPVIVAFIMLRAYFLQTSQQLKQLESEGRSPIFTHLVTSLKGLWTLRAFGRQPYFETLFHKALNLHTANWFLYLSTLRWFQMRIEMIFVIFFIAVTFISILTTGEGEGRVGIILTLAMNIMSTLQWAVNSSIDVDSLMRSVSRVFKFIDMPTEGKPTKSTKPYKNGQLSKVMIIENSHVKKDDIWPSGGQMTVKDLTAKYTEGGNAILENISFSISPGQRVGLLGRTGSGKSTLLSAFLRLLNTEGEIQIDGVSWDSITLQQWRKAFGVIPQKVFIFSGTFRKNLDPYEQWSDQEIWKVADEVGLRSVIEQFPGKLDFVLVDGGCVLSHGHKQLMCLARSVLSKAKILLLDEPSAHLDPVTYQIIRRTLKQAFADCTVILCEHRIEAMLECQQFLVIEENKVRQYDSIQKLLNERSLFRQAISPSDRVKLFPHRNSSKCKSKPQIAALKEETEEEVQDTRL

The assay addresses T1, ΔF508-CFTR (Homo sapiens, UniProt P13569, DEL508-508).
T1 construct: expressed in transfected cells
Kind of assay: Membrane potential optical assay, identification of correction compounds (single-addition HTS format). In kind it is cell-based. Conditions: PercentActivity; ΔF508-CFTR in NIH3T3 mouse fibroblasts; 16-24 hrs with compound; 10 μM forskolin and 20 μM genistein; read-out: BinnedMaxEfficacy. The text has this:
Membrane Potential Optical Methods for Assaying ΔF508-CFTR Modulation Properties of Compounds.
The assay utilizes fluorescent voltage sensing dyes to measure changes in membrane potential using a fluorescent plate reader (e.g., FLIPR III, Molecular Devices, Inc.) as a readout for increase in functional ΔF508-CFTR in NIH 3T3 cells. The driving force for the response is the creation of a chloride ion gradient in conjunction with channel activation by a single liquid addition step after the cells have previously been treated with compounds and subsequently loaded with a voltage sensing dye.
To identify small molecules that correct the trafficking defect associated with ΔF508-CFTR; a single-addition HTS assay format was developed. Assay Plates containing cells are incubated for ˜2-4 hours in tissue culture incubator at 37° C., 5% CO2, 90% humidity. Cells are then ready for compound exposure after adhering to the bottom of the assay plates.
The cells were incubated in serum-free medium for 16-24 hrs in tissue culture incubator at 37° C., 5% CO2, 90% humidity in the presence or absence (negative control) of test compound. The cells were subsequently rinsed 3× with Krebs Ringers solution and loaded with a voltage sensing redistribution dye. To activate ΔF508-CFTR, 10 μM forskolin and the CFTR potentiator, genistein (20 μM), were added along with Cl^−-free medium to each well. The addition of Cl^−-free medium promoted Cl^− efflux in response to ΔF508-CFTR activation and the resulting membrane depolarization was optically monitored using voltage sensor dyes.
Bath Solution #1: (in mM) NaCl 160, KCl 4.5, CaCl2 2, MgCl2 1, HEPES 10, pH 7.4 with NaOH.
Chloride-free bath solution: Chloride salts in Bath Solution #1 are substituted with gluconate salts.
NIH3T3 mouse fibroblasts stably expressing ΔF508-CFTR are used for optical measurements of membrane potential. The cells are maintained at 37° C. in 5% CO2 and 90% humidity in Dulbecco's modified Eagle's medium supplemented with 2 mM glutamine, 10% fetal bovine serum, 1×NEAA, β-ME, 1×pen/strep, and 25 mM HEPES in 175 cm^2 culture flasks. For all optical assays, the cells were seeded at ˜20,000/well in 384-well matrigel-coated plates and cultured for 2 hrs at 37° C. before culturing at 27° C. for 24 hrs. for the potentiator assay. For the correction assays, the cells are cultured at 27° C. or 37° C. with and without compounds for 16-24 hours.
For the compound `N#Cc1ccc(NC(=O)C2(c3ccc4c(c3)OCO4)CC2)nc1` [Compound 65], the Emax lay within 25 to 100%.
The value for `COc1ccccc1C(OCCCO)c1ccc(NC(=O)C2(c3ccc4c(c3)OCO4)CC2)nc1` (centres unmarked) [Compound 66] was greater than 100%; that for `O=C(Nc1cccc(CC2CCCCC2)n1)C1(c2ccc3c(c2)OCO3)CC1` [Compound 67] was greater than 100%; that for `COc1ccccc1C(=O)c1ccc(NC(=O)C2(c3ccc4c(c3)OC(F)(F)O4)CC2)nc1` [Compound 68] was greater than 100%.
The value for `O=C(Nc1ccccn1)C1(c2ccc3c(c2)OCO3)CC1` [Compound 69] was greater than 100%.
The value for `COc1ccccc1C(=O)c1ccc(NC(=O)C2(c3ccc(C)cc3)CC2)nc1` [Compound 70] was greater than 100%; that for `COc1ccccc1C(OCCN1CCCCC1)c1ccc(NC(=O)C2(c3ccc4c(c3)OCO4)CC2)nc1` (centres unmarked) [Compound 71] was 25 to 100%.
As for `Cc1cccc(NC(=O)C2(c3ccc4c(c3)OCO4)CC2)n1` [Compound 72], the Emax is greater than 100%.
Regarding `Cc1ccc(NC(=O)C2(c3ccc4c(c3)OC(F)(F)O4)CC2)nc1NCc1ccccc1` [Compound 73], the Emax is greater than 100%.
The same measure for `COc1ccccc1N(C)c1cccc(NC(=O)C2(c3ccc4c(c3)OCO4)CC2)n1` [Compound 74]: greater than 100%.
For the compound `CCc1ccnc(NC(=O)C2(c3ccc(OC)cc3)CC2)c1` [Compound 75], the Emax was in the range of 25 to 100%.
Turning to `COc1ccccc1C(=O)c1ccc(NC(=O)C2(c3ccc(Cl)cc3)CC2)nc1` [Compound 76], the Emax was greater than 100%.
The value for `COc1ccccc1C(=O)c1ccc(NC(=O)C2(c3ccccc3)CC2)nc1` [Compound 77] was 25 to 100%; that for `O=C(Nc1cccc(Cc2ccccc2Cl)n1)C1(c2ccc3c(c2)OCO3)CC1` [Compound 78] was greater than 100%.
